Among the data in patent US10829496B2, “Thienopyridines and benzothiophenes useful as IRAK4 inhibitors” (BRISTOL-MYERS SQUIBB COMPANY, priority 2017, dated 2020) are IC50, EC50 and Papp values, retold here.

A word on the IC50: it is the concentration that inhibits the measured activity by half. What is called EC50 is the concentration giving half of the maximal effect. Broadly, the Papp is the rate of passage across a membrane or cell layer, normalised by area and donor concentration. The low end stands for slow passage, the high end for fast passage.

One series addresses IRAK4 (Homo sapiens (Human), UniProt Q9NWZ3). The series is described as follows: IRAK4 Inhibition Assay. The series is classed as biochemical. The settings on record: ATP 500 μM; IRAK4 0.6 nM; 60 min at room temperature. How it is done:
The assays were performed in U-bottom 384-well plates. The final assay volume was 30 μL prepared from 15 μL additions of enzyme and substrates (fluoresceinated peptide and ATP) and test compounds in assay buffer (20 mM HEPES pH 7.2, 10 mM MgCl2, 0.015% Brij 35 and 4 mM DTT). The reaction was initiated by the combination of IRAK4 with substrates and test compounds. The reaction mixture was incubated at room temperature for 60 min. and terminated by adding 45 μL of 35 mM EDTA to each sample. The reaction mixture was analyzed on the Caliper LABCHIP® 3000 (Caliper, Hopkinton, Mass.) by electrophoretic separation of the fluorescent substrate and phosphorylated product. Inhibition data were calculated by comparison to no enzyme control reactions for 100% inhibition and vehicle-only reactions for 0% inhibition. The final concentrations of reagents in the assays are ATP, 500 μM; FL-IPTSPITTTYFFFKKK peptide 1.5 μM; IRAK4, 0.6 nM; and DMSO, 1.6%.

The test system of series [1] is IL-6 levels in human whole blood stimulated with a TLR2 agonist. Put plainly: IRAK4 Whole Blood Assay (TLR2 agonist lipoteichoic acid-stimulated IL-6). Conditions: 10 μg/mL lipoteichoic acid, 5 hours, IL-6 readout. It counts as cell-based. The procedure: Human whole blood containing the anti-coagulant ACD-A was plated in 384-well plate (25 μL/well) and incubated with compounds for 60 minutes at 37° C. in a 5% CO2 incubator. The blood was stimulated with a TLR2 agonist, 10 μg/mL final concentration of lipoteichoic acid (Invivogen, San Diego, Calif.) in 25 μL RPMI (Gibco) for 5 hours in a 5% CO2 incubator. At the end of the incubation, plates were centrifuged at 2300 rpm for 5 minutes. Supernatants were harvested and analyzed for IL-6 levels by Flow Cytometry beads assay (BD Biosciences, San Jose, Calif.).

The nature of series [2]: Caco-2 Permeability Assay. Conditions: human, 3 μM compound, 2 hours at 37° C., direction not given. It counts as in vitro ADME. How it is done: Caco-2 Permeability Assay
Thirteen to 27 days prior to assay, Caco-2 cells were seeded onto collagen-coated polycarbonate filter membranes in 24-well transwell plates at a density of 1.45×10^5 cells/cm^2, approximately 4.8×10^4 cells per well. The cells were grown in a culture medium consisting of DMEM supplemented with 10% fetal bovine serum, 10 mM HEPES, 1% nonessential amino acids, 2 mM L-glutamine, 100 U/mL penicillin-G, and 100 μg/mL streptomycin. The culture medium was replaced every 3 days and the cells were maintained at 37° C. in a 95% relative humidity and 5% CO2 atmosphere. The cells were evaluated for tight junction formation just prior to assay. The test compound was solubilized to 10 mM in 100% DMSO and diluted to 3 μM in assay buffer. Permeability studies were initiated by adding 200 μL assay buffer plus/minus compound to the apical transwell compartment and 600 μL assay buffer plus/minus compound to the basolateral compartment of the 24-well transwell low-binding cluster plate. For apical-to-basolateral (A to B) permeability (absorptive direction), buffer containing compound was placed in the apical compartment (donorwells), while buffer alone was placed in the corresponding basolateral compartments (receiverwells). For basolateral-to-apical (B to A) permeability (secretive direction), buffer containing compound was placed in the basolateral compartment (donor wells), while buffer alone was placed in the corresponding apical compartments (receiver wells). Transwells were then incubated for 2 hours at 37° C. in a 95% relative humidity and 5% CO2 atmosphere with gentle agitation. Following incubation, 100 μL was removed from each apical and basolateral compartment and transferred to 96-well low binding plates that had been previously loaded with 100 μL/well of acetonitrile containing 250 nM propranolol, 250 nM diclofenac, and 500 nM tolbutamide as internal standards. The samples were subsequently analyzed by LC-MS/MS to determine concentrations of compound.

Sequence of IRAK4 (Q9NWZ3 whole entry): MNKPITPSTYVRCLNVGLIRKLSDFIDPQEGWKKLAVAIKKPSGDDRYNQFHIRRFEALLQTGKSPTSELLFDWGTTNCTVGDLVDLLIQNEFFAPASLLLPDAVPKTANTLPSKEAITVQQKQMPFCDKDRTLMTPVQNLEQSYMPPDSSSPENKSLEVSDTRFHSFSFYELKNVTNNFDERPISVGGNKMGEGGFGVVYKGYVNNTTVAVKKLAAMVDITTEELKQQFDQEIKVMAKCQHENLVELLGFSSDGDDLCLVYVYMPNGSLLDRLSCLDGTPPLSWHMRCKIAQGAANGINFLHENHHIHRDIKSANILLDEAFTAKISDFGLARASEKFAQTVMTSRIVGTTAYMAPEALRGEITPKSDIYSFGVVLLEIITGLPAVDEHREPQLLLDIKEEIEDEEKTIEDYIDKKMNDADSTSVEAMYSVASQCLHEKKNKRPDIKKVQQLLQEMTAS

Consider `COc1nc2c(OC[C@H]3NC(=O)[C@@H](F)[C@H]3C)csc2cc1C(N)=O` [Example 28, 3-(((2S,3S,4S)-4-fluoro-3-methyl-5-oxopyrrolidin-2-yl)methoxy)-5-methoxythieno[3,2-b]pyridine-6-carboxamide], for which the IC50 on IRAK4 came out at 13.3 nM. In series [1], this molecule came in with an EC50 of 736 nM. In series [2], this molecule showed a Papp at 2 h, 3 µM of 5.8 ×10⁻⁶ cm/s.

As to `CC[C@@H]1[C@H](F)C(=O)N[C@@H]1COc1csc2cc(C(N)=O)c(OC)cc12` [Example 4, 3-(((2S,3S,4S)-3-ethyl-4-fluoro-5-oxopyrrolidin-2-yl)methoxy)-5-methoxybenzo[b]thiophene-6-carboxamide], the IC50 at IRAK4 is 0.4 nM. The molecule also showed an EC50 in series [1] of 153 nM. Further, in series [2], the Papp at 2 h, 3 µM amounted to 8.5 ×10⁻⁶ cm/s.

As to `CC[C@@H]1OC(=O)N[C@@H]1COc1csc2cc(C(N)=O)c(OC)nc12` [Example 26, 3-(((4R,5S)-5-ethyl-2-oxooxazolidin-4-yl)methoxy)-5-methoxythieno[3,2-b]pyridine-6-carboxamide], the IC50 on IRAK4 amounted to 6.8 nM. Moreover, the Papp at 2 h, 3 µM in series [2] was 3.5 ×10⁻⁶ cm/s.

Consider `CC[C@@H]1CC(=O)N[C@@H]1COc1csc2cc(C(N)=O)c(OC)nc12` [Example 6, 3-(((2S,3R)-3-ethyl-5-oxopyrrolidin-2-yl)methoxy)-5-methoxythieno[3,2-b]pyridine-6-carboxamide], for which the half-inhibitory concentration (IC50) on IRAK4 was 1 nM. The molecule further registered an EC50 in series [1] of 3210 nM. In addition, the Papp at 2 h, 3 µM in series [2] amounted to 8.1 ×10⁻⁶ cm/s.

As for `CC[C@@H]1CC(=O)N[C@@H]1COc1c(C)sc2cc(C(N)=O)c(OC)nc12` [Example 19, 3-(((2S,3R)-3-ethyl-5-oxopyrrolidin-2-yl)methoxy)-5-methoxy-2-methylthieno[3,2-b]pyridine-6-carboxamide], the IC50 on IRAK4 amounted to 10.6 nM. In addition, in series [1], the EC50 amounted to 3300 nM. The molecule further showed a Papp at 2 h, 3 µM in series [2] of 22.5 ×10⁻⁶ cm/s.

Regarding `CC[C@@H]1[C@H](F)C(=O)N[C@@H]1COc1csc2cc(C(N)=O)c(OC)nc12` [Example 2, 3-(((2S,3S,4S)-3-Ethyl-4-fluoro-5-oxopyrrolidin-2-yl)methoxy)-5-methoxythieno[3,2-b]pyridine-6-carboxamide], on IRAK4, the IC50 was found to be 1.2 nM. Moreover, in series [1], the EC50 was found to be 205 nM. Moreover, the apparent permeability coefficient (Papp) at 2 h, 3 µM in series [2] was determined as 7.3 ×10⁻⁶ cm/s.

For `CC[C@H]1[C@@H](COc2csc3cc(C(N)=O)c(OC)nc23)NC(=O)[C@@H]1F` [Example 8, 3-(((2S,3S,4R)-3-ethyl-4-fluoro-5-oxopyrrolidin-2-yl)methoxy)-5-methoxythieno[3,2-b]pyridine-6-carboxamide], the IC50 on IRAK4 amounted to 0.7 nM. In addition, the EC50 in series [1] came to 92 nM. In addition, the Papp at 2 h, 3 µM in series [2] amounted to 4.2 ×10⁻⁶ cm/s.

As for `CC[C@@H]1[C@H](F)C(=O)N[C@@H]1COc1csc2cc(C(N)=O)c(OC(C)C)nc12` [Example 23, 3-(((2S,3S,4S)-3-ethyl-4-fluoro-5-oxopyrrolidin-2-yl)methoxy)-5-isopropoxythieno[3,2-b]pyridine-6-carboxamide], the IC50 at IRAK4 stood at 1.4 nM. In addition, a half-maximal response in series [1] (EC50) required 189 nM. Besides, the Papp at 2 h, 3 µM in series [2] was determined as 18.4 ×10⁻⁶ cm/s.

`COc1nc2c(OC[C@H]3NC(=O)C(F)(F)[C@H]3C)csc2cc1C(N)=O` [Example 21, 3-(((2S,3S)-4,4-difluoro-3-methyl-5-oxopyrrolidin-2-yl)methoxy)-5-methoxythieno[3,2-b]pyridine-6-carboxamide]: the IC50 at IRAK4 worked out at 1.3 nM. The molecule further returned an EC50 in series [1] of 127 nM. This molecule also displayed an apparent permeability (Papp) at 2 h, 3 µM in series [2] of 13.6 ×10⁻⁶ cm/s.

On to `COc1nc2c(OC[C@H]3NC(=O)C[C@H]3C(F)F)csc2cc1C(N)=O` [Example 12, 3-(((2S,3R)-3-(difluoromethyl)-5-oxopyrrolidin-2-yl)methoxy)-5-methoxythieno[3,2-b]pyridine-6-carboxamide], for which the IC50 on IRAK4 amounted to 2.5 nM. A half-maximal effect in series [1] (EC50) was put at 261 nM.

For the molecule `COc1nc2c(OC[C@H]3NC(=O)[C@H](F)[C@H]3C)csc2cc1C(N)=O` [Example 27, 3-(((2S,3S,4R)-4-fluoro-3-methyl-5-oxopyrrolidin-2-yl)methoxy)-5-methoxythieno[3,2-b]pyridine-6-carboxamide], on IRAK4, the IC50 is 1.1 nM. This molecule also registered a half-maximal effective concentration (EC50) in series [1] of 58 nM. Further, the Papp at 2 h, 3 µM in series [2] turned out to be 5.9 ×10⁻⁶ cm/s.

As for `CC[C@H]1[C@@H](COc2csc3cc(C(N)=O)c(OC)nc23)NC(=O)C1(F)F` [Example 1, 3-(((2S,3S)-3-Ethyl-4,4-difluoro-5-oxopyrrolidin-2-yl)methoxy)-5-methoxythieno[3,2-b]pyridine-6-carboxamide], the IC50 at IRAK4 was determined as 0.6 nM. In series [1], this molecule displayed a half-maximal effective concentration (EC50) of 58 nM. The Papp at 2 h, 3 µM in series [2] amounted to 10.2 ×10⁻⁶ cm/s.
